Values quoted from earlier work, collected in patent US11452288B1, “Innocuous sterilant using hemocyanin and functionalized fullerenes with broad-spectrum intracellular and interstitial microbiocidal and radical scavenging effects for packaged matter, biologics and organics including liquids, gases, tissue, organs, cells, and limbs with copper mediated oxygenation …” (priority 2022, dated 2022).

Legend:
endothelial = conditions: optimal antifungal concentrations in the nutrient media
[1] = tested on: fungal donor rim cultures; conditions: additive to Optisol-GS, compared with Optisol-GS alone

| SMILES | endothelial toxicity (endothelial) | rate of positive fungal donor rim cultures [1] |
| --- | --- | --- |
| C[C@@H]1[C@H](O)[C@@H](C)/C=C/C=C/C=C/C=C/C=C/C=C/C=C/[C@H](O[C@@H]2O[C@H](C)[C@@H](O)[C@H](N)[C@@H]2O)C[C@@H]2O[C@](O)(C[C@@H](O)C[C@@H](O)[C@H](O)CC[C@@H](O)C[C@@H](O)CC(=O)O[C@H]1C)C[C@H](O)[C@H]2C(=O)O [Amphotericin B] | significant endothelial toxicity |  |
| C[C@@H](c1ncncc1F)[C@](O)(Cn1cncn1)c1ccc(F)cc1F [voriconazole] |  | significant reduction |
